# Measurements reported in ChEMBL document CHEMBL1201862, “PubChem BioAssay data set” (2004).
#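 All cell lines were grown in 96-well plates and treated with compound for 48 hours. GI50: concentration for 50% inhibition of growth.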 Active and inactive are the calls of the source. Rule as the data show it: active = GI50 up to about 1.1 µM and inactive = higher.
# Legend:
# Assay in all cases: NCI tumour cell line growth inhibition, 48 h
# IGROV-1 = system: IGROV-1
# BT-549 = system: BT-549
# SK-MEL-28 = system: SK-MEL-28
# ACHN = system: ACHN
# A498 = system: A498
# RXF 393 = system: RXF 393
# EKVX = system: EKVX
# HT-29 = system: HT-29
# NCI-H226 = system: NCI-H226
# MDA-N = system: MDA-N
# UO-31 = system: UO-31
# MDA-MB-435 = system: MDA-MB-435
# TK-10 = system: TK-10
# HL-60 = system: HL-60
# 786-0 = system: 786-0
# HCT-116 = system: HCT-116
# MDA-MB-231 = system: MDA-MB-231
# SR = system: SR
# HCC 2998 = system: HCC 2998
# CCRF-CEM = system: CCRF-CEM
# M14 = system: M14
# OVCAR-8 = system: OVCAR-8
# SK-MEL-2 = system: SK-MEL-2
# U-251 = system: U-251
# MOLT-4 = system: MOLT-4
# T47D = system: T47D
# SK-MEL-5 = system: SK-MEL-5
# DU-145 = system: DU-145
# SF-539 = system: SF-539
# Hs-578T = system: Hs-578T
# HCT-15 = system: HCT-15
# NCI/ADR-RES = system: NCI/ADR-RES
# SF-295 = system: SF-295
# UACC-62 = system: UACC-62
# SW-620 = system: SW-620
# MCF7 = system: MCF7
# HOP-92 = system: HOP-92
# A549 = system: A549
# KM12 = system: KM12
# SK-OV-3 = system: SK-OV-3
# OVCAR-3 = system: OVCAR-3
# HOP-62 = system: HOP-62
# SF-268 = system: SF-268
# SN12C = system: SN12C
# NCI-H23 = system: NCI-H23
# NCI-H460 = system: NCI-H460
# PC-3 = system: PC-3
# OVCAR-5 = system: OVCAR-5
# K562 = system: K562
# Malme-3M = system: Malme-3M
# SNB-19 = system: SNB-19
# CAKI-1 = system: CAKI-1
# COLO 205 = system: COLO 205
# OVCAR-4 = system: OVCAR-4
# RPMI-8226 = system: RPMI-8226
# SNB-75 = system: SNB-75
# NCI-H522 = system: NCI-H522
# LOX IMVI = system: LOX IMVI
# UACC-257 = system: UACC-257
smiles,measurement,setting,value
O=C(c1ccccc1)N1CCC(Nc2cccnc2)O1 (centres undefined),GI50,IGROV-1,> 100 µM (inactive)
same,GI50,BT-549,> 100 µM (inactive)
same,GI50,SK-MEL-28,> 100 µM (inactive)
same,GI50,ACHN,> 100 µM (inactive)
same,GI50,A498,> 100 µM (inactive)
same,GI50,RXF 393,> 100 µM (inactive)
same,GI50,EKVX,> 100 µM (inactive)
same,GI50,HT-29,> 100 µM (inactive)
same,GI50,NCI-H226,> 100 µM (inactive)
same,GI50,MDA-N,> 100 µM (inactive)
same,GI50,UO-31,> 100 µM (inactive)
same,GI50,MDA-MB-435,> 100 µM (inactive)
same,GI50,TK-10,> 100 µM (inactive)
same,GI50,HL-60,> 100 µM (inactive)
same,GI50,786-0,> 100 µM (inactive)
same,GI50,HCT-116,> 100 µM (inactive)
same,GI50,MDA-MB-231,> 100 µM (inactive)
same,GI50,SR,> 100 µM (inactive)
same,GI50,HCC 2998,50.8 µM (inactive)
same,GI50,CCRF-CEM,> 100 µM (inactive)
same,GI50,M14,> 100 µM (inactive)
same,GI50,OVCAR-8,> 100 µM (inactive)
same,GI50,SK-MEL-2,> 100 µM (inactive)
same,GI50,U-251,> 100 µM (inactive)
same,GI50,MOLT-4,> 100 µM (inactive)
same,GI50,T47D,92.9 µM (inactive)
same,GI50,SK-MEL-5,> 100 µM (inactive)
same,GI50,DU-145,> 100 µM (inactive)
same,GI50,SF-539,> 100 µM (inactive)
same,GI50,Hs-578T,7.64 µM (inactive)
same,GI50,HCT-15,> 100 µM
same,GI50,NCI/ADR-RES,> 100 µM (inactive)
same,GI50,SF-295,> 100 µM (inactive)
same,GI50,UACC-62,> 100 µM (inactive)
same,GI50,SW-620,> 100 µM (inactive)
same,GI50,MCF7,> 100 µM (inactive)
same,GI50,HOP-92,> 100 µM (inactive)
same,GI50,A549,> 100 µM (inactive)
same,GI50,KM12,> 100 µM (inactive)
same,GI50,SK-OV-3,> 100 µM (inactive)
same,GI50,OVCAR-3,> 100 µM (inactive)
same,GI50,HOP-62,> 100 µM (inactive)
same,GI50,SF-268,> 100 µM (inactive)
same,GI50,SN12C,> 100 µM (inactive)
same,GI50,NCI-H23,> 100 µM (inactive)
same,GI50,NCI-H460,> 100 µM (inactive)
same,GI50,PC-3,> 100 µM (inactive)
same,GI50,OVCAR-5,> 100 µM (inactive)
same,GI50,K562,> 100 µM (inactive)
same,GI50,Malme-3M,60.3 µM (inactive)
same,GI50,SNB-19,> 100 µM (inactive)
Nc1ccc(I)cn1,GI50,IGROV-1,> 100 µM (inactive)
same,GI50,BT-549,> 100 µM (inactive)
same,GI50,SK-MEL-28,> 100 µM (inactive)
same,GI50,ACHN,> 100 µM (inactive)
same,GI50,CAKI-1,> 100 µM (inactive)
same,GI50,A498,> 100 µM (inactive)
same,GI50,RXF 393,> 100 µM (inactive)
same,GI50,EKVX,> 100 µM (inactive)
same,GI50,HT-29,> 100 µM (inactive)
same,GI50,NCI-H226,> 100 µM (inactive)
same,GI50,MDA-N,> 100 µM (inactive)
same,GI50,UO-31,> 100 µM (inactive)
same,GI50,MDA-MB-435,> 100 µM (inactive)
same,GI50,HL-60,> 100 µM (inactive)
same,GI50,786-0,> 100 µM (inactive)
same,GI50,HCT-116,> 100 µM (inactive)
same,GI50,COLO 205,> 100 µM (inactive)
same,GI50,MDA-MB-231,> 100 µM (inactive)
same,GI50,SR,> 100 µM (inactive)
same,GI50,HCC 2998,> 100 µM (inactive)
same,GI50,CCRF-CEM,> 100 µM (inactive)
same,GI50,M14,> 100 µM (inactive)
same,GI50,OVCAR-8,> 100 µM (inactive)
same,GI50,SK-MEL-2,> 100 µM (inactive)
same,GI50,OVCAR-4,> 100 µM (inactive)
same,GI50,U-251,> 100 µM (inactive)
same,GI50,MOLT-4,> 100 µM (inactive)
same,GI50,T47D,> 100 µM (inactive)
same,GI50,SK-MEL-5,> 100 µM (inactive)
same,GI50,DU-145,> 100 µM (inactive)
same,GI50,RPMI-8226,> 100 µM (inactive)
same,GI50,Hs-578T,> 100 µM (inactive)
same,GI50,SNB-75,> 100 µM (inactive)
same,GI50,HCT-15,> 100 µM
same,GI50,NCI/ADR-RES,> 100 µM (inactive)
same,GI50,SF-295,> 100 µM (inactive)
same,GI50,UACC-62,> 100 µM (inactive)
same,GI50,SW-620,> 100 µM (inactive)
same,GI50,MCF7,> 100 µM (inactive)
same,GI50,A549,> 100 µM (inactive)
same,GI50,KM12,> 100 µM (inactive)
same,GI50,SK-OV-3,> 100 µM (inactive)
same,GI50,OVCAR-3,> 100 µM (inactive)
same,GI50,HOP-62,> 100 µM (inactive)
same,GI50,SF-268,> 100 µM (inactive)
same,GI50,SN12C,> 100 µM (inactive)
same,GI50,NCI-H23,> 100 µM (inactive)
same,GI50,NCI-H522,> 100 µM (inactive)
same,GI50,LOX IMVI,> 100 µM (inactive)
same,GI50,NCI-H460,> 100 µM (inactive)
same,GI50,PC-3,> 100 µM (inactive)
same,GI50,OVCAR-5,> 100 µM (inactive)
same,GI50,K562,> 100 µM (inactive)
same,GI50,Malme-3M,> 100 µM (inactive)
same,GI50,SNB-19,> 100 µM (inactive)
CN(C)C(=O)CO/N=C1/C(=C2/C(=O)Nc3ccccc32)Nc2ccccc21,GI50,IGROV-1,> 100 µM (inactive)
same,GI50,BT-549,65.9 µM (inactive)
same,GI50,SK-MEL-28,> 100 µM (inactive)
same,GI50,ACHN,> 100 µM (inactive)
same,GI50,CAKI-1,4.69 µM (inactive)
same,GI50,RXF 393,17.7 µM (inactive)
same,GI50,EKVX,> 100 µM (inactive)
same,GI50,HT-29,> 100 µM (inactive)
same,GI50,NCI-H226,> 100 µM (inactive)
same,GI50,MDA-N,> 100 µM (inactive)
same,GI50,UO-31,> 100 µM (inactive)
same,GI50,MDA-MB-435,> 100 µM (inactive)
same,GI50,TK-10,40.9 µM (inactive)
same,GI50,HL-60,> 100 µM (inactive)
same,GI50,786-0,64.7 µM (inactive)
same,GI50,HCT-116,94.8 µM (inactive)
same,GI50,COLO 205,31.6 µM (inactive)
same,GI50,MDA-MB-231,> 100 µM (inactive)
same,GI50,SR,88.7 µM (inactive)
same,GI50,HCC 2998,> 100 µM (inactive)
same,GI50,CCRF-CEM,> 100 µM (inactive)
same,GI50,M14,97.3 µM (inactive)
same,GI50,OVCAR-8,> 100 µM (inactive)
same,GI50,SK-MEL-2,> 100 µM (inactive)
same,GI50,OVCAR-4,> 100 µM (inactive)
same,GI50,U-251,26.6 µM (inactive)
same,GI50,MOLT-4,> 100 µM (inactive)
same,GI50,T47D,> 100 µM (inactive)
same,GI50,SK-MEL-5,37.3 µM (inactive)
same,GI50,DU-145,> 100 µM (inactive)
same,GI50,SF-539,39.3 µM (inactive)
same,GI50,RPMI-8226,> 100 µM (inactive)
same,GI50,Hs-578T,> 100 µM (inactive)
same,GI50,SNB-75,30.4 µM (inactive)
same,GI50,HCT-15,> 100 µM
same,GI50,NCI/ADR-RES,> 100 µM (inactive)
same,GI50,SF-295,39.9 µM (inactive)
same,GI50,UACC-62,> 100 µM (inactive)
same,GI50,SW-620,> 100 µM (inactive)
same,GI50,MCF7,> 100 µM (inactive)
same,GI50,HOP-92,> 100 µM (inactive)
same,GI50,A549,> 100 µM (inactive)
same,GI50,KM12,0.032 µM (active)
same,GI50,SK-OV-3,> 100 µM (inactive)
same,GI50,UACC-257,> 100 µM (inactive)
same,GI50,OVCAR-3,> 100 µM (inactive)
same,GI50,HOP-62,18.7 µM (inactive)
same,GI50,SF-268,> 100 µM (inactive)
same,GI50,SN12C,> 100 µM (inactive)
same,GI50,NCI-H23,> 100 µM (inactive)
same,GI50,NCI-H522,> 100 µM (inactive)
same,GI50,LOX IMVI,> 100 µM (inactive)
same,GI50,NCI-H460,> 100 µM (inactive)
same,GI50,PC-3,> 100 µM (inactive)
same,GI50,OVCAR-5,> 100 µM (inactive)
same,GI50,K562,> 100 µM (inactive)
same,GI50,Malme-3M,> 100 µM (inactive)
same,GI50,SNB-19,> 100 µM (inactive)
